Converted amounts (≈) assume the structure as drawn.
Legend:
[1] = Thermodynamic solubility, shake-flask, 10 mM PBS (0.15 M KCl) pH 7, 25 °C, 1 h, HPLC-UV; conditions: for solubility at 1 h / Classification (GSK guidelines) / Solubility (in words): pH 7, 25 °C; for Classification (GSK guidelines): solubility class
Experimental: Its measurement only requires an initial DMSO stock solution which is precipitated by the addition of an aqueous phase.[23],[24] Here, we measured thermodynamic solubility, often determined in late lead optimization, which efficiently considers the solubility value when the equilibrium with the stable phase or polymorph has been reached.
Solubility was determined in 10 mM PBS (0.15 M KCl) at pH 7, 25 °C. A 1–2 mg sample of each molecule was added to the same quantity (1–2 mL) of the mentioned buffer to obtain 1 mg/mL solutions in the vial. Samples were then submitted to 25 °C and magnetic stirring (500 rpm) for 1 h. After this period, solutions or suspensions were filtered through the 0.45 μm membrane pore and diluted with buffer, 10 mM PBS (0.15 M KCl). The amount of dissolved compound in each sample was then quantified, in duplicate, via HPLC using ultraviolet (UV) spectrometric detection.
Variable volumes of pure DMSO (0–100 μL) were added separately to small and defined (1 mg) quantities of each compound to obtain clear solutions. […] Afterward, 5% DMSO 10 mM PBS (0.15 M KCl) was added until the suspensions or precipitations were redissolved, to render clear solutions. As soon as solutions were obtained, they were used as mother solutions for the performance of 5–10 point calibration curves with serial buffer dilutions (1:1; v/v) 5% DMSO 10 mM PBS (0.15 M KCl). Calibration points were then measured via HPLC-UV.
The mobile phase consisted of a solution of acetonitrile (ACN) and 20 mM ammonium acetate buffer (AAB), pH 7, freshly prepared. A 10 μL volume of each sample (volume of injection) was injected at an isocratic 1 mL/min flow rate analyzed at 30 °C (oven temperature). Solubility determination of each compound required a specific HPLC method. Settings are collected in Table S11 (PROTACs) and Table S10 (building blocks).
Injections were performed in duplicate for each molecule’s calibration points. The retention time and area under the curve (AUC in absorbance units) were collected, and the average was calculated. The AUC average (y-axis) was plotted versus theoretical concentration (mg/mL; x-axis) to obtain a calibration curve for each molecule. Correlation equations and coefficients (R^2) were efficiently calculated for each compound (Table S12 for PROTACs and Table S10 for building blocks). Samples were then injected in duplicate, and the AUC averages and standard deviations were calculated. Finally, the absorbance averages were interpolated into the corresponding equations, extracting the final solubility values with their standard deviation, after dilution factor corrections.

[2] = log kw^IAM – clog kw^IAM
Experimental: Since polarity is a molecular property often related to solubility,[13] experimental descriptors of polarity (Δ log kw^IAM and EPSA) were also determined. Introduced by Grumetto in 2012,[30] Δ log kw^IAM is the difference between the experimental log kw^IAM and the value expected for neutral analytes with a zero value of polar surface area (which depends on the experimental measurement of the n-octanol partition coefficient[31]). EPSA quantifies the polarity of a molecule using a supercritical fluid chromatographic (SFC) method.[32]

[3] = 25 °C, pH 7, aqueous buffer, thermodynamic from solid, Solubility average, thermodynamic, shake-flask, 1 h
[4] = 25 °C, pH 7, aqueous buffer, thermodynamic from solid, Solubility log S, Table S-3
[5] = 25 °C, pH 7, aqueous buffer, thermodynamic from solid, Solubility, Table S-3
[6] = 25 °C, pH 7, aqueous buffer, thermodynamic from solid, Exp.LogS, PROTAC pairs and building blocks
[7] = pH 7, aqueous buffer, thermodynamic from solid
[8] = pH 7, Exp.LogS, PROTAC pairs and building blocks

| SMILES | solubility at 1 h [1, 3] | solubility at 1 h [1, 4] | solubility at 1 h [1, 5] | Classification (GSK guidelines) [1] | ΔLog kw IAM [2] | solubility at 1 h [1, 6] | Solubility (in words) [1] | solubility thermodynamic at 1 h [1, 7] | solubility at 1 h [1, 8] |
| --- | --- | --- | --- | --- | --- | --- | --- | --- | --- |
| CC(C)(C)c1cnc(CSc2cnc(NC(=O)C3CCN(CC(=O)NCCOCCOCCOCCNc4cccc5c4C(=O)N(C4CCC(=O)NC4=O)C5=O)CC3)s2)o1 (stereo not drawn) [THAL-SNS-032] | 52.5 µM | 52.5 µM | 50 µg/mL | Intermediate (30–200 μM) (Intermediate (30–200 μM)) | – | – | – | – | – |
| COc1cc(-c2cn(C)c(=O)c3cc(C(=N)NC4CCS(=O)(=O)CC4)sc23)ccc1OCC(=O)NCCCCNC(=O)COc1cccc2c1C(=O)N(C1CCC(=O)NC1=O)C2=O (stereo not drawn) [BRD9 degrader-1] | 661 µM | 661 µM | 600 µg/mL | High (> 200 μM) (High (> 200 μM)) | high | – | – | – | – |
| Cc1ncsc1-c1ccc(CNC(=O)[C@@H]2C[C@H](O)CN2C(=O)[C@@H](NC(=O)COCCOCCOCCNC(=O)C[C@@H]2N=C(c3ccc(Cl)cc3)c3c(sc(C)c3C)-n3c(C)nnc32)C(C)(C)C)cc1 [CisMZ1] | 50.1 µM | 50.1 µM | 50 µg/mL | Intermediate (30–200 μM) (Intermediate (30–200 μM)) | – | – | – | – | – |
| Cc1ncsc1-c1ccc(CNC(=O)[C@@H]2C[C@@H](O)CN2C(=O)[C@@H](NC(=O)COCCOCCOCCNC(=O)C[C@@H]2N=C(c3ccc(Cl)cc3)c3c(sc(C)c3C)-n3c(C)nnc32)C(C)(C)C)cc1 [MZ1] | 38 µM | – | 40 µg/mL | Intermediate (30–200 μM) (Intermediate (30–200 μM)) | – | 38 µM | – | – | – |
| Cc1sc2c(c1C)C(c1ccc(Cl)cc1)=N[C@@H](CC(=O)Nc1ccc(OCCOCCOCCOCCNc3cccc4c3C(=O)N(C3CCC(=O)NC3=O)C4=O)cc1)c1nnc(C)n1-2 (stereo partly drawn) [ARV-825] | < 0.32 µM | – | – | Low (< 30 μM) (Low (< 30 μM)) | – | – | below the quantification limit | < 0.29 µg/mL | – |
| COC(=O)C[C@@H]1N=C(c2ccc(Cl)cc2)c2c(sc(C(=O)NCCCCCNc3cccc4c3C(=O)N(C3CCC(=O)NC3=O)C4=O)c2C)-n2c(C)nnc21 (stereo partly drawn) [ZXH-3-26] | 2.95 µM | – | – | Low (< 30 μM) (Low (< 30 μM)) | – | – | – | – | 2.95 µM |
| Cc1ncsc1-c1ccc(CNC(=O)[C@@H]2C[C@@H](O)CN2C(=O)[C@@H](NC(=O)CCCCOCCCCCOCCCCCCNc2cccc3c2C(=O)N(C2CCC(=O)NC2=O)C3=O)C(C)(C)C)cc1 (stereo partly drawn) [CRBN-6-5-5-VHL] | 1.23 µM | 1.23 µM | – | Low (< 30 μM) (Low (< 30 μM)) | – | – | – | 1.19 µg/mL (≈ 1.22 µM) | – |
| COc1cc(C(=O)NCCOCCOCCOCC(=O)N[C@H](C(=O)N2C[C@H](O)C[C@H]2C(=O)NCc2ccc(-c3scnc3C)cc2)C(C)(C)C)ccc1Nc1ncc(C(F)(F)F)c(Oc2cccc3c2C(=O)CC3)n1 [BI-0319] | 2.63 µM | – | – | Low (< 30 μM) (Low (< 30 μM)) | – | 2.63 µM | – | 2.78 µg/mL (≈ 2.62 µM) | – |
| Cc1sc2c(c1C)C(c1ccc(Cl)cc1)=N[C@@H](CC(=O)NCCNc1cccc3c1C(=O)N(C1CCC(=O)NC1=O)C3=O)c1nnc(C)n1-2 (stereo partly drawn) [dBET57] | 30.2 µM | – | 20 µg/mL | Intermediate (30–200 μM) (Intermediate (30–200 μM)) | – | – | – | – | 30.2 µM |
| O=C(CCCCC(=O)NCCN1C(=O)c2cccc3c(Sc4ccc(Br)cc4)ccc(c23)C1=O)NCCCCCCNc1cccc2c1C(=O)N(C1CCC(=O)NC1=O)C2=O (stereo not drawn) [Mcl1 degrader-1] | < 0.87 µM | < 0.871 µM | – | Low (< 30 μM) (Low (< 30 μM)) | – | – | below the quantification limit | < 0.793 µg/mL | – |
| COc1cc(C(=O)NCCOCCOCCOCC(=O)N[C@H](C(=O)N2C[C@@H](O)C[C@H]2C(=O)NCc2ccc(-c3scnc3C)cc2)C(C)(C)C)ccc1Nc1ncc(C(F)(F)F)c(Oc2cccc3c2C(=O)CC3)n1 [BI-4206] | 0.58 µM | – | – | Low (< 30 μM) (Low (< 30 μM)) | – | 0.575 µM | – | 0.606 µg/mL (≈ 0.571 µM) | – |
| O=C1CCC(N2Cc3c(C#CCCCNC(=O)c4ccc(NC(=O)[C@@H]5NC6(CCCCC6)[C@@]6(C(=O)Nc7cc(Cl)ccc76)[C@H]5c5cccc(Cl)c5F)cc4)cccc3C2=O)C(=O)N1 (stereo partly drawn) [MD-224] | < 0.23 µM | < 0.229 µM | – | Low (< 30 μM) (Low (< 30 μM)) | – | – | below the quantification limit | < 0.289 µg/mL | – |
| Cc1ncsc1-c1ccc(CNC(=O)[C@@H]2C[C@H](O)CN2C(=O)[C@@H](NC(=O)COCCOCCOCCOCCOCCOCC(=O)N[C@H](C(=O)N2C[C@@H](O)C[C@H]2C(=O)NCc2ccc(-c3scnc3C)cc2)C(C)(C)C)C(C)(C)C)cc1 [CMP98] | 331 µM | 331 µM | 390 µg/mL | High (> 200 μM) (High (> 200 μM)) | high | – | – | – | – |
| COc1cc2ncnc(Nc3ccc(F)c(Cl)c3)c2cc1OCCCCCOCCOCCC(=O)N[C@H](C(=O)N1C[C@H](O)C[C@H]1C(=O)NCc1ccc(-c2scnc2C)cc1)C(C)(C)C [Gefitinib-based PROTAC 3] | 1.23 µM | 1.23 µM | – | Low (< 30 μM) (Low (< 30 μM)) | – | – | – | 1.14 µg/mL (≈ 1.22 µM) | – |
| CC(=O)N1c2ccc(-c3ccc(C(=O)NCCOCCOCCOCC(=O)N[C@H](C(=O)N4C[C@H](O)C[C@H]4C(=O)NCc4ccc(-c5scnc5C)cc4)C(C)(C)C)cc3)cc2[C@H](Nc2ccc(Cl)cc2)C[C@@H]1C [MZP-54] | 0.51 µM | – | – | Low (< 30 μM) (Low (< 30 μM)) | – | 0.513 µM | – | 0.528 µg/mL (≈ 0.509 µM) | – |
| Cc1ncsc1-c1ccc(CNC(=O)[C@@H]2C[C@H](O)CN2C(=O)[C@@H](NC(=O)C2(F)CC2)C(C)(C)C)c(OCCOc2ccc(CN3CCN(c4cc(-c5ccccc5O)nnc4N)CC3)cc2)c1 [CisACBI1] | < 0.87 µM | < 0.871 µM | – | Low (< 30 μM) (Low (< 30 μM)) | – | – | below the quantification limit | < 0.817 µg/mL | – |
| COc1cc(C(=O)NCCOCCOCCOCCC(=O)Nc2cccc3c2C(=O)N(C2CCC(=O)NC2=O)C3=O)ccc1Nc1ncc(C(F)(F)F)c(Oc2cccc3c2C(=O)CC3)n1 (stereo not drawn) [BI-3663] | 6.92 µM | – | 10 µg/mL | Low (< 30 μM) (Low (< 30 μM)) | – | 6.92 µM | – | – | – |
| CC(=O)c1c(C)c2cnc(Nc3ccc(N4CCN(CCOCCOCCOCCNC(=O)COc5cccc6c5C(=O)N(C5CCC(=O)NC5=O)C6=O)CC4)cn3)nc2n(C2CCCC2)c1=O (stereo not drawn) [BSJ-03-123] | 17.8 µM | 17.8 µM | 20 µg/mL | Low (< 30 μM) (Low (< 30 μM)) | – | – | – | – | – |
| COc1cc(-c2cn(C)c(=O)c3cnccc23)cc(OC)c1CN1CCN(CCCCCOc2cc(-c3scnc3C)ccc2CNC(=O)[C@@H]2C[C@@H](O)CN2C(=O)[C@@H](NC(=O)C2(F)CC2)C(C)(C)C)CC1 [VZ185] | 50.1 µM | 50.1 µM | 50 µg/mL | Intermediate (30–200 μM) (Intermediate (30–200 μM)) | – | – | – | – | – |
| Cc1ncsc1-c1ccc(CNC(=O)[C@@H]2C[C@@H](O)CN2C(=O)[C@@H](NC(=O)C2(F)CC2)C(C)(C)C)c(OCCOc2ccc(CN3CCN(c4cc(-c5ccccc5O)nnc4N)CC3)cc2)c1 [ACBI1] | < 0.72 µM | – | – | Low (< 30 μM) (Low (< 30 μM)) | – | – | below the quantification limit | < 0.68 µg/mL | – |

Source: article PMC9574862, “Designing Soluble PROTACs: Strategies and Preliminary Guidelines” (Journal of Medicinal Chemistry, 2022)
